Source: patent US11149011B2, “Compounds and methods for IDO and TDO modulation, and indications therefor” (Plexxikon Inc., priority 2018, dated 2021)

How the values were obtained:
IDO1 = molecular target: T1, IDO1 (Homo sapiens, UniProt P14902); assay: IDO enzymatic assay; format: biochemical; conditions: geometric mean; read-out: IDO1 GMean: IC50 (μM) (Biochemical Assay)
T1 construct: His tag (N); made in house; host or cells: E. coli
How it was run: (§1)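 Kynurenine formed after TCA hydrolysis (30 min, 50 °C) was quantified relative to full-reaction and no-enzyme controls, and IC50s were fitted. TDO reactions used 1 nM enzyme with 350 μM Trp and 0.4 μM methylene blue for 70 min; IDO reactions used 6 nM enzyme, 10 μM Trp, 5 μM methylene blue for 20 min; both at pH 6.5, room temperature.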

TDO = molecular target: T2, TDO (Homo sapiens, UniProt P48775); assay: TDO enzymatic assay; conditions: geometric mean; read-out: TDO GMean: IC50 (μM) (Biochemical Assay)
T2 construct: His tag (N); made in house; host or cells: E. coli
How it was run: as §1

[1] = molecular target: T3, IDO1-expressing HEK293 cell clones (Homo sapiens, UniProt P14902); assay: Cell based kynurenine assay, IDO1-expressing HEK293 cell clones; conditions: HEK293 cells, 24 hours of incubation, geometric mean; read-out: HEK293 IDO1 Kynurenine GMean IC50 (μM) (Cellular Assay)
T3 construct: expressed in transfected cells; host or cells: HEK293
How it was run: (§2)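 IC50s come from nonlinear regression of % inhibition of kynurenine in culture supernatant after 24 hours of compound exposure. Controls were 0.2% DMSO-treated cells and media alone. Cells were stable human IDO1- or TDO-expressing HEK293 clones (CMV promoter), plated at 2.5×10^4 per well.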

[2] = molecular target: T4, TDO-expressing HEK293 cell clones (Homo sapiens, UniProt P48775); assay: Cell based kynurenine assay, TDO-expressing HEK293 cell clones; conditions: HEK293 cells, 24 hours of incubation, geometric mean; read-out: HEK293 TDO Kynurenine GMean IC50 (μM) (Cellular Assay)
T4 construct: expressed in transfected cells; host or cells: HEK293
How it was run: as §2

Measured: IC50

T3 sequence (P14902 whole entry): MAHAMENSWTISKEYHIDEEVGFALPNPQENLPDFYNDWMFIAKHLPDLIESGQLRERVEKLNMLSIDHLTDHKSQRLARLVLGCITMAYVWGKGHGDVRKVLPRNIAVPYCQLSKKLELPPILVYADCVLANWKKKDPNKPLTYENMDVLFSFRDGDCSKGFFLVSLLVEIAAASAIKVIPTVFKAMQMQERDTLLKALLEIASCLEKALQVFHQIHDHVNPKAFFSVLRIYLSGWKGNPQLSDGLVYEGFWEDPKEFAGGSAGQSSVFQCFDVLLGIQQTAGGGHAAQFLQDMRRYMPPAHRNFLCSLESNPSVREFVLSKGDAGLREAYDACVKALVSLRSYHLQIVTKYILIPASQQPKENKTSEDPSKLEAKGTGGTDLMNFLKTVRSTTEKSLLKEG
T1 sequence (P14902 whole entry): as above
T4 sequence (P48775 whole entry): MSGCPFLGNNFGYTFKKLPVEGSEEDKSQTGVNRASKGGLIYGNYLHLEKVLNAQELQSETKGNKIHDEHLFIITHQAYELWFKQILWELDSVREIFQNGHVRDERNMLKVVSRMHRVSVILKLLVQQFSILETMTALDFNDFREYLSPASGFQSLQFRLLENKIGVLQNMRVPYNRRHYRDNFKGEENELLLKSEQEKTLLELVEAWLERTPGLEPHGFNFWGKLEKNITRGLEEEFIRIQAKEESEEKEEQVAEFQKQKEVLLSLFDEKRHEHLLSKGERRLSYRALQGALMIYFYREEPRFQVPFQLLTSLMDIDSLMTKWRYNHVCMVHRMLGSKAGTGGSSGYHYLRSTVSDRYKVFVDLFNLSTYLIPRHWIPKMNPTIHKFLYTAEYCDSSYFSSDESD
T2 sequence (P48775 whole entry): as above

CC(C)(C1CCN(C(=O)NOCC2CC2)CC1)[C@H](O)c1cc(Cl)cc2cn[nH]c12 [Compound P-0600, (S)-4-(1-(5-chloro-1H-indazol-7-yl)-1-hydroxy-2-methylpropan-2-yl)-N-(cyclopropylmethoxy)piperidine-1-carboxamide]
0.0001 to 10 µM: all assays above
